Some test systems named below: IGROV1 ovarian; CCRF-CEM leukemia; HL-60(TB) leukemia; SK-MEL-28 melanoma; A498 renal; SNB-19 CNS; HCT-116 colon; SF-295 CNS; RXF 393 renal; NCI-H226 lung.
Holding throughout (test): NCI tumour cell line growth inhibition, 48 h

“And” between values parts separate entries of the source, which are not always exact repeats. Equal entries are not always repeated.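 Where inhibition never reached the appropriate level, the endpoint shown equals the highest concentration tested. Otherwise, values were interpolated linearly from a five-concentration, 48-hour dose response in 96-well plates. GI50 marks 50% less growth. TGI marks complete inhibition of growth.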

In the case of `Cc1ccc(CCC(=O)C(=O)O)s1`, the TGI in the test with IGROV1 ovarian, with CCRF-CEM leukemia, with HL-60(TB) leukemia, with SK-MEL-28 melanoma, with A498 renal and with SNB-19 CNS was > 100 µM each time. In addition, the TGI in the test on HCT-116 colon and with SF-295 CNS was > 100 µM each time.

As for `COc1ccc2nc3cc(Cl)ccc3c(NCCNc3c4ccc(Cl)cc4nc4ccc(OC)cc34)c2c1`, the GI50 in the test with CCRF-CEM leukemia was 2.19 µM; in the test on RXF 393 renal, 1.55 µM; in the test on SK-MEL-28 melanoma, 1.86 µM; in the test on A498 renal, 1.8 µM. Moreover, the TGI with CCRF-CEM leukemia was found to be 6.68 µM; in the test on RXF 393 renal, 2.92 µM; with SK-MEL-28 melanoma it was 3.4 µM; in the test on A498 renal, 3.36 µM.

As for `CCCCNC(=O)/N=C/c1c(O)c2ccccc2oc1=O`, the TGI in the test with IGROV1 ovarian is > 100 µM; with RXF 393 renal, 79.5 µM; in the test on HL-60(TB) leukemia, 57.4 µM; with NCI-H226 lung it was > 100 µM; with SK-MEL-28 melanoma it was > 100 µM; with SNB-19 CNS, > 100 µM. In addition, the TGI in the test with HCT-116 colon is > 100 µM.

With `COc1ccc(Sc2ccccc2N)cc1`, the TGI in the test on IGROV1 ovarian is > 100 µM; in the test on CCRF-CEM leukemia, 83.8 µM; in the test with RXF 393 renal it was 75.6 µM; in the test on HL-60(TB) leukemia it was 60.9 µM; with NCI-H226 lung, 89.4 µM; with SK-MEL-28 melanoma, 77.3 µM. Moreover, the TGI with A498 renal, with SNB-19 CNS, in the test with HCT-116 colon and in the test on SF-295 CNS was > 100 µM throughout.

On to `O=C(N/N=C/c1cc(Br)cc(Br)c1[O-])c1ccccc1O.O=C(N/N=C/c1cc(Br)cc(Br)c1[O-])c1ccccc1O.[Ni+2]`, for which the TGI with IGROV1 ovarian was 1.34 µM; in the test with CCRF-CEM leukemia, > 100 µM; in the test on RXF 393 renal it was 2.62 µM; in the test with HL-60(TB) leukemia, 0.346 µM; in the test with NCI-H226 lung, 1.56 µM; in the test on SK-MEL-28 melanoma it was 1.96 µM. Besides, the results for the TGI in the test on SNB-19 CNS, with HCT-116 colon and with SF-295 CNS were 3.67 µM, 1.55 µM and 1.11 µM, respectively. The GI50 with CCRF-CEM leukemia was 0.537 µM.

As to `COC(=O)C(NC(=O)c1ccccc1)C(c1ccc(Cl)cc1)P(=O)(OC)OC` (stereo not given), the TGI in the test on IGROV1 ovarian, in the test on CCRF-CEM leukemia, in the test on RXF 393 renal, in the test on HL-60(TB) leukemia, with NCI-H226 lung and in the test with SK-MEL-28 melanoma was > 100 µM each time. For the same compound, the TGI with A498 renal, with SNB-19 CNS, in the test on HCT-116 colon and with SF-295 CNS was > 100 µM throughout.

Consider `NCCCNCCCCN1CC1`, for which the TGI is 7.83 µM with RXF 393 renal; > 20.9 µM in the test with NCI-H226 lung; > 20.1 µM with SK-MEL-28 melanoma; 2.14 µM in the test with A498 renal; > 23.8 µM with SNB-19 CNS; > 100 µM in the test with HCT-116 colon. In addition, the TGI in the test on SF-295 CNS is > 55.9 µM.

Take `COc1ccc(N2NC(c3ccccc3)(c3ccccc3)C(C)C2=O)cc1` (stereo not given): the TGI with IGROV1 ovarian, in the test with CCRF-CEM leukemia, with RXF 393 renal, with HL-60(TB) leukemia, with NCI-H226 lung and with SK-MEL-28 melanoma was > 100 µM in each case. Further, the TGI with A498 renal, with SNB-19 CNS, with HCT-116 colon and in the test with SF-295 CNS was > 100 µM in each case.

Consider `COc1ccc(-c2nn(-c3ccc(NC(=O)Nc4ccc(Cl)c(C(F)(F)F)c4)cc3)cc2-c2ccncc2)cc1Cl`, for which the GI50 is 2.16 µM in the test with IGROV1 ovarian; 1.4 µM with CCRF-CEM leukemia; 0.74 µM with RXF 393 renal; 2.13 µM with HL-60(TB) leukemia; 2.59 µM in the test with NCI-H226 lung; 1.67 µM with SK-MEL-28 melanoma. The GI50 with A498 renal is 1.62 µM; with SNB-19 CNS it was 2.35 µM; in the test with HCT-116 colon it was 1.1 µM. Also, the TGI is 63.1 µM in the test on IGROV1 ovarian; 6.65 µM with CCRF-CEM leukemia; 2.19 µM in the test on RXF 393 renal; 5.75 µM with HL-60(TB) leukemia; 8.78 µM in the test with NCI-H226 lung; 3.64 µM with SK-MEL-28 melanoma. Further, the TGI in the test on A498 renal was found to be 5.18 µM; in the test with SNB-19 CNS, 11 µM; in the test with HCT-116 colon it was 2.69 µM.

Consider `CN(C)/N=N/c1nc[nH]c1C(N)=O`, for which the GI50 with IGROV1 ovarian was 129 µM; in the test with RXF 393 renal it was 93.3 µM; with HL-60(TB) leukemia, 4.16 µM; with NCI-H226 lung, 140 µM; with SK-MEL-28 melanoma, 595 µM; in the test with A498 renal, 72.4 µM and > 133 µM. In addition, the GI50 in the test on SNB-19 CNS is > 85.3 µM; in the test on HCT-116 colon it was 45.4 µM; in the test on SF-295 CNS it was 44 µM. Besides, the TGI in the test on CCRF-CEM leukemia was 90.1 µM and > 731 µM; with RXF 393 renal, 99.4 µM and > 165 µM; in the test on HL-60(TB) leukemia, 85 µM and > 745 µM; in the test with SK-MEL-28 melanoma it was > 1000 µM; in the test on A498 renal it was > 875 µM; in the test on SNB-19 CNS, > 1000 µM. Moreover, the TGI in the test on HCT-116 colon and in the test with SF-295 CNS was > 1000 µM each time.

In the case of `COC1OC2=CCC3C(=O)NC(=O)C3C2[C@H](OCc2ccccc2)C1OCc1ccccc1` (stereo not given in full), the TGI in the test on IGROV1 ovarian turned out to be 3.86 µM; in the test with RXF 393 renal it was 2.99 µM; with SK-MEL-28 melanoma it was 3.3 µM; with HCT-116 colon, 3.21 µM; in the test on SF-295 CNS, 32.7 µM.
